Assay results taken from patent US20250296959A1, “B7-H3 TARGETING PEPTIDES AND CONSTRUCTS THEREOF” (Mariana Oncology Inc., priority 2024, published 2025).
Where two headings read alike, the source gives them in different places. Starred links: 1 amine or outer side, 2 acyl side, 3 side chain; linkers in the order of their positions; H or OH if unused. Positions of bridges follow the written chain, without caps; N, C: chain ends. Non-standard residues stand in square brackets, D forms with d. Residues, ends and D or L forms follow the SMILES beside them. Groups on a side chain read outwards from the residue. *: point of attachment. X2 = O=C(O)CN1CCN(CC(=O)O)CCN(CC(=O)NCCOCCOCCOCCOCC(=O)*)CCN(CC(=O)O)CC1; Ala(1-CH2CO2H-4-piperidyl) = N[C@@H](CC1CCN(CC(=O)O)CC1)C(=O)O; Ala(piperidin-4-yl) = O=C([C@H](CC1CCN([*:3])CC1)N[*:1])[*:2]; DOTA = O=C(O)CN1CCN(CC(=O)O)CCN(CC(=O)*)CCN(CC(=O)O)CC1; Phe(4-COOH) = N[C@@H](Cc1ccc(C(=O)O)cc1)C(=O)O; Trp(5-F) = N[C@@H](Cc1c[nH]c2ccc(F)cc12)C(=O)O; PEG8 = NCCOCCOCCOCCOCCOCCOCCOCCOCCC(=O)O; Ala(4-THP) = N[C@@H](CC1CCOCC1)C(=O)O; Val(3-OH) = CC(C)(O)[C@H](N)C(=O)O; Cha = N[C@@H](CC1CCCCC1)C(=O)O; aThr = C[C@H](O)[C@H](N)C(=O)O; PEG4 = NCCOCCOCCOCCOCCC(=O)O; Tle = CC(C)(C)[C@H](N)C(=O)O; hLeu = CC(C)CC[C@H](N)C(=O)O; Ms = CS(=O)(=O)*; Sar = CNCC(=O)O

Experiments:
Calu-6 cell line [1] = experiment: Net internalization of [177Lu]Lu-labeled peptide in Calu-6 cells; type: cell-based, Human; conditions: 1 hour, 37° C., glycine pH 2.5 acid wash
How it was run: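 Peptide conjugate labeled with [177Lu]LuCl3 at pH ~5, 80 °C, 17–20 min, and purity checked by RP-HPLC. B7-H3-expressing human Calu-6 lung cancer cells at 5 million cells/mL in 1% PBSA. Internalized fraction: counts left after two 3 min 50 mM glycine pH 2.5 washes and NaOH lysis, gamma counted against bound fraction.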

Calu-6 cell line [2] = experiment: Cell associated (bound) fraction of [177Lu]Lu-labeled peptide in Calu-6 cells; type: cell-based, Human; conditions: 1 hour, 37° C.
How it was run: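 Peptide conjugate was labelled with [177Lu]LuCl3 in ammonium acetate pH ~5 at 80 °C for 17-20 min, with purity checked by RP-HPLC. Calu-6 suspensions (5 million cells/mL in 1% PBSA) were incubated with 0.8 μCi for 1 h at 37 °C. Cell pellets were gamma-counted after two cold PBS/BSA washes, giving the bound fraction against the unbound supernatant plus washes.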

human 4lg B7-H3 = target: T1, human 4lg B7-H3 (Homo sapiens, UniProt Q5ZPR3); experiment: Affinity determination by surface plasmon resonance (SPR) to 4Ig B7-H3; conditions: 4Ig B7-H3
T1 sequence (Q5ZPR3 29-534): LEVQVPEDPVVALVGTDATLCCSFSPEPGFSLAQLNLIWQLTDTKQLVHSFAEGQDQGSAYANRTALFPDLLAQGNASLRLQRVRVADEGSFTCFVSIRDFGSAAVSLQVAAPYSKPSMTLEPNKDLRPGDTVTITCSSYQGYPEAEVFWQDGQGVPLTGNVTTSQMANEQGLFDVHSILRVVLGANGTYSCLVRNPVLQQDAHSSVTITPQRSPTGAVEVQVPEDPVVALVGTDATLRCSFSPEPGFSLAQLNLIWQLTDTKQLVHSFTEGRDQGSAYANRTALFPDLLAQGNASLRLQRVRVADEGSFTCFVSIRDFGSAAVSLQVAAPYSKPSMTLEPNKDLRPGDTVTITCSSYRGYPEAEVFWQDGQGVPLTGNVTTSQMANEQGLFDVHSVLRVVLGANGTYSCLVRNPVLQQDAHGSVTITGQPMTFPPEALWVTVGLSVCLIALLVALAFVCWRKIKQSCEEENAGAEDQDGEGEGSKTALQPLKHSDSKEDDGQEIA

[3] = read-out: SPR KD—37° C., 37° C. flow cell temperature
[4] = read-out: SPR KD—25° C., 25° C. flow cell temperature
[5] = SPR KD—25° C., 25° C. flow cell temperature

| SMILES | % net internalization (Calu-6 cell line [1]) | % cell associated fraction (Calu-6 cell line [2]) | Kd (human 4lg B7-H3; [3]) | Kd (human 4lg B7-H3; [4]) | Kd (human 4lg B7-H3; [5]) |
| --- | --- | --- | --- | --- | --- |
| CC(C)CC[C@H](NS(C)(=O)=O)C(=O)N[C@@H](Cc1ccc(O)cc1)C(=O)N[C@H]1CSSC[C@@H](C(=O)N[C@@H](Cc2c[nH]c3ccc(F)cc23)C(=O)N[C@@H](Cc2ccccc2)C(=O)N[C@H](C(=O)N[C@H](CCCCNC(=O)CN2CCN(CC(=O)O)CCN(CC(=O)O)CCN(CC(=O)O)CC2)C(=O)O)C(C)(C)O)NC(=O)[C@H](Cc2ccc(O)cc2)NC(=O)[C@H](C(C)C)NC(=O)[C@H](CC(=O)O)NC(=O)[C@H](CC2CCOCC2)NC(=O)[C@H](CC2CCNCC2)NC(=O)CNC(=O)[C@H](C(C)(C)C)NC1=O [Cpd #437, MeSO2-hLeu-Y-C-Tbg-G-PipAla-ThpA-D-V-Y-C-5FW-F-hydroxyVal-dLys(DOTA)-COOH] (Ms-[hLeu]YC[Tle]G[Ala(piperidin-4-yl)][Ala(4-THP)]DVYC[Trp(5-F)]F[Val(3-OH)][dK](DOTA)-OH; disulfide 3-11) | A (%≤25) | B (25<%≤50) | < 1 nM | – | – |
| CC(=O)N[C@@H](CCC(C)C)C(=O)N[C@@H](Cc1ccc(O)cc1)C(=O)N[C@H]1CSSC[C@@H](C(=O)N[C@@H](Cc2c[nH]c3ccc(F)cc23)C(=O)N[C@@H](Cc2ccccc2)C(=O)N[C@H](C(=O)N[C@H](CCCCNC(=O)[C@H](CCC(=O)O)NC(=O)CN2CCN(CC(=O)O)CCN(CC(=O)O)CCN(CC(=O)O)CC2)C(=O)O)C(C)(C)O)NC(=O)[C@H](Cc2ccc(O)cc2)NC(=O)[C@H](C(C)C)NC(=O)[C@H](CC(=O)O)NC(=O)[C@H](CC2CCOCC2)NC(=O)[C@H](CC2CCNCC2)NC(=O)CNC(=O)[C@H](C(C)(C)C)NC1=O [compound 428, Ac-hLeu-Y-C-Tbg-G-PipAla-ThpA-D-V-Y-C-5FW-F-hydroxyVal-dLys(Glu-DOTA)-COOH] (Ac-[hLeu]YC[Tle]G[Ala(piperidin-4-yl)][Ala(4-THP)]DVYC[Trp(5-F)]F[Val(3-OH)][dK]([Glu-DOTA])-OH; disulfide 3-11) | A (%≤25) | B (25<%≤50) | < 1 nM | – | – |
| CC(=O)N[C@@H](CCC(C)C)C(=O)N[C@@H](Cc1ccc(O)cc1)C(=O)N[C@H]1CSSC[C@@H](C(=O)N[C@@H](Cc2c[nH]c3ccc(F)cc23)C(=O)N[C@@H](Cc2ccccc2)C(=O)N[C@H](C(=O)N[C@H](CCCCNC(=O)CN2CCN(CC(=O)O)CCN(CC(=O)O)CCN(CC(=O)O)CC2)C(N)=O)[C@H](C)O)NC(=O)[C@H](Cc2ccc(O)cc2)NC(=O)[C@H](C(C)C)NC(=O)[C@H](CC(=O)O)NC(=O)[C@H](Cc2ccc(O)cc2)NC(=O)[C@H](CCCCN)NC(=O)CNC(=O)[C@H](C(C)C)NC1=O [compound 162, Ac-hLeu-Y-C-V-G-K-Y-D-V-Y-C-5FW-F-alloThr-dLys(DOTA)-CONH2] (Ac-[hLeu]YCVGKYDVYC[Trp(5-F)]F[aThr][dK](DOTA)-NH2; disulfide 3-11) | A (%≤25) | B (25<%≤50) | – | < 1 nM | – |
| CC(=O)N[C@@H](CCC(C)C)C(=O)N[C@@H](Cc1ccc(O)cc1)C(=O)N[C@H]1CSSC[C@@H](C(=O)N[C@@H](Cc2c[nH]c3ccc(F)cc23)C(=O)N[C@@H](Cc2ccccc2)C(=O)N[C@H](C(=O)N[C@H](C)C(N)=O)C(C)(C)O)NC(=O)[C@H](Cc2ccc(O)cc2)NC(=O)[C@H](C(C)C)NC(=O)[C@H](CC(=O)O)NC(=O)[C@H](CC2CCOCC2)NC(=O)[C@H](CC2CCN(C(=O)CCOCCOCCOCCOCCNC(=O)CN3CCN(CC(=O)O)CCN(CC(=O)O)CCN(CC(=O)O)CC3)CC2)NC(=O)CNC(=O)[C@H](C(C)(C)C)NC1=O [compound 384, Ac-hLeu-Y-C-Tbg-G-Pip(PEG4-DOTA)Ala-ThpA-D-V-Y-C-5FW-F-hydroxyVal-dAla-CONH2] (Ac-[hLeu]YC[Tle]G[Ala(piperidin-4-yl)]([PEG4-DOTA])[Ala(4-THP)]DVYC[Trp(5-F)]F[Val(3-OH)][dA]-NH2; disulfide 3-11) | A (%≤25) | B (25<%≤50) | < 1 nM | – | – |
| CC[C@H](C)[C@@H]1NC(=O)[C@@H](NC(=O)[C@H](Cc2ccc(O)cc2)NC(=O)[C@H](CCC(C)C)NC(C)=O)CSSC[C@@H](C(=O)N[C@@H](Cc2c[nH]c3ccc(F)cc23)C(=O)N[C@@H](Cc2ccccc2)C(=O)N[C@H](C(=O)N[C@H](CCCCNC(=O)CN2CCN(CC(=O)O)CCN(CC(=O)O)CCN(CC(=O)O)CC2)C(=O)O)C(C)(C)O)NC(=O)[C@H](Cc2ccc(O)cc2)NC(=O)[C@H](C(C)C)NC(=O)[C@H](CC(=O)O)NC(=O)[C@H](CC2CCOCC2)NC(=O)[C@H](CC2CCN(CC(=O)O)CC2)NC(=O)CNC1=O [compound 318, Ac-hLeu-Y-C-Ile-G-[Pip(CH2CO2H)Ala]-ThpA-D-V-Y-C-5FW-F-hydroxyVal-dLys(DOTA)-COOH] (Ac-[hLeu]YCIG[Ala(1-CH2CO2H-4-piperidyl)][Ala(4-THP)]DVYC[Trp(5-F)]F[Val(3-OH)][dK](DOTA)-OH; disulfide 3-11) | A (%≤25) | B (25<%≤50) | 1 to 10 nM | – | – |
| CC(=O)N[C@@H](CCC(C)C)C(=O)N[C@@H](Cc1ccc(O)cc1)C(=O)N[C@H]1CSSC[C@@H](C(=O)N[C@@H](Cc2c[nH]c3ccc(F)cc23)C(=O)N[C@@H](Cc2ccccc2)C(=O)N[C@H](C(=O)N[C@H](CCCCNC(=O)CN2CCN(CC(=O)O)CCN(CC(=O)O)CCN(CC(=O)O)CC2)C(N)=O)C(C)(C)O)NC(=O)[C@H](Cc2ccc(O)cc2)NC(=O)[C@H](C(C)C)NC(=O)[C@H](CC(=O)O)NC(=O)[C@H](CC2CCCCC2)NC(=O)[C@H](CC2CCNCC2)NC(=O)CNC(=O)[C@H](C(C)C)NC1=O [compound 227, Ac-hLeu-Y-C-V-G-PipAla-CHA-D-V-Y-C-5FW-F-hydroxyVal-dLys(DOTA)-CONH2] (Ac-[hLeu]YCVG[Ala(piperidin-4-yl)][Cha]DVYC[Trp(5-F)]F[Val(3-OH)][dK](DOTA)-NH2; disulfide 3-11) | B (25<%≤50) | C (%>50) | – | < 1 nM | – |
| CC(C)CC[C@H](NC(=O)CCOCCOCCOCCOCCOCCOCCOCCOCCNC(=O)CN1CCN(CC(=O)O)CCN(CC(=O)O)CCN(CC(=O)O)CC1)C(=O)N[C@@H](Cc1ccc(O)cc1)C(=O)N[C@H]1CSSC[C@@H](C(=O)N[C@@H](Cc2c[nH]c3ccc(F)cc23)C(=O)N[C@@H](Cc2ccccc2)C(=O)N2CCC[C@H]2C(N)=O)NC(=O)[C@H](Cc2ccc(O)cc2)NC(=O)[C@H](C(C)C)NC(=O)[C@H](CC(=O)O)NC(=O)[C@H](Cc2ccc(C(=O)O)cc2)NC(=O)[C@H](CCCCN)NC(=O)CNC(=O)[C@H](C(C)C)NC1=O [compound 294, DOTA-PEG8-hLeu-Y-C-V-G-K-4COOHPhe-D-V-Y-C-5FW-F-Pro-CONH2] ({DOTA-PEG8}-[hLeu]YCVGK[Phe(4-COOH)]DVYC[Trp(5-F)]FP-NH2; disulfide 3-11) | A (%≤25) | A (%≤25) | – | – | 1 to 10 nM |
| CC(=O)N[C@@H](CCC(C)C)C(=O)N[C@@H](Cc1ccc(O)cc1)C(=O)N[C@H]1CSSC[C@@H](C(=O)N[C@@H](Cc2c[nH]c3ccc(F)cc23)C(=O)N[C@@H](Cc2ccccc2)C(=O)N2CCC[C@H]2C(=O)N[C@H](CCCCNC(=O)COCCOCCOCCOCCNC(=O)CN2CCN(CC(=O)O)CCN(CC(=O)O)CCN(CC(=O)O)CC2)C(N)=O)NC(=O)[C@H](Cc2ccc(O)cc2)NC(=O)[C@H](C(C)C)NC(=O)[C@H](CC(=O)O)NC(=O)[C@H](CC2CCOCC2)NC(=O)[C@H](CCCCN)NC(=O)CNC(=O)[C@H](C(C)C)NC1=O [compound 282, Ac-hLeu-Y-C-V-G-K-ThpA-D-V-Y-C-5FW-F-Pro-dLys(PEG4-DOTA)-CONH2] (Ac-[hLeu]YCVGK[Ala(4-THP)]DVYC[Trp(5-F)]FP[dK](X2)-NH2; disulfide 3-11) | A (%≤25) | B (25<%≤50) | – | – | < 1 nM |
| CC(=O)N[C@@H](CCC(C)C)C(=O)N[C@@H](Cc1ccc(O)cc1)C(=O)N[C@H]1CSSC[C@@H](C(=O)N[C@@H](Cc2c[nH]c3ccc(F)cc23)C(=O)N[C@@H](Cc2ccccc2)C(=O)N[C@H](C(=O)N[C@H](CCCCNC(=O)CN2CCN(CC(=O)O)CCN(CC(=O)O)CCN(CC(=O)O)CC2)C(N)=O)[C@@H](C)O)NC(=O)[C@H](Cc2ccc(O)cc2)NC(=O)[C@H](C(C)C)NC(=O)[C@H](CC(=O)O)NC(=O)[C@H](Cc2ccc(O)cc2)NC(=O)[C@H](CCCCN)NC(=O)CN(C)C(=O)[C@H](C(C)C)NC1=O [compound 77, Ac-hLeu-Y-C-V-Sar-K-Y-D-V-Y-C-5FW-F-Thr-dLys(DOTA)-CONH2] (Ac-[hLeu]YCV[Sar]KYDVYC[Trp(5-F)]FT[dK](DOTA)-NH2; disulfide 3-11) | A (%≤25) | C (%>50) | – | 1 to 10 nM | – |
